A short description of data set [1]: Completed and ongoing clinical studies, tolerability. Particulars: single doses up to 100 mg, multiple doses up to 30 mg once daily up to 14 days. Type of data set: in vivo, human. From the text:
These include: 1. Protocol G100401, a Phase 1 single ascending dose study in 96 healthy, young, male volunteers; 2. Protocol G100402, a Phase 1 multiple ascending dose study in 50 healthy, young, male volunteers, and 23 elderly male volunteers with truncal obesity; 3. Protocol G100503, a Phase 1 single dose pharmacokinetic study to assess the effect of a dosage regimen that simulates a sustained release formulation to an immediate release formulation in 18 healthy, young male volunteers and 18 postmenopausal women; 4. Protocol G100506, a Phase 1 single dose pharmacokinetic study to assess the relative bioavailability of a 3 mg hard shell capsule formulation to be used during continued clinical development and to assess the effect of food on the pharmacokinetics of the 3 mg softgel formulation in 27 healthy, young, male volunteers; 5. Protocol 006, a Phase 1 single dose and multiple dose pharmacokinetic study in 24 postmenopausal, Japanese women; 6. Protocol G200501, a Phase 2 study in 60 postmenopausal women and 60 elderly men to assess lean body mass and physical function; 7. Protocol 003, a Phase 1b study in 44 postmenopausal women; 8. Protocol G200502, a Phase 2b study in 159 men and postmenopausal women with cancer to assess lean body mass and physical function; 9.

Data set [2] deals with MCF-7 cells expressing AR. Put plainly: MCF-7-AR cell viability (SRB). It counts as cell-based. Particulars: 6 days. As to the method:
After 6 days of treatment, cells were harvested, and the number of cells was counted. […] Medium was changed after 3 days and re-treated. Cells were fixed after 6 days of treatment and the cell viability was measured by SRB assay. […] Medium was changed, and the cells were re-treated on days 4 and 7. Medium was collected, pooled from triplicates, and stored in −80° C. After 10 days of treatment, cells were fixed, and cell viability was measured using SRB. MCF-7 cells stably transfected with GFP (MCF-7-GFP) were plated in growth medium. Twenty-four hours after plating, cells were fed with the conditioned medium obtained from patient-derived fibroblasts as indicated above. Cells were fed for 10 days with conditioned medium, with medium changed on days 4 and 7. After 10 days of treatment, cells were fixed, and the viability was measured by SRB assay. […] AR-positive, but ER-negative HCI-9 PDX was surgically implanted as 1 mm^3 fragments under the mammary fat pad in NSG mice (n=8-10/group). […] Tumor volume was measured thrice weekly. […] ER-α from HCI-13 was cloned into pCR3.1 vector. […] Values are expressed as average±S.E. from n=3-4/data point.
Cells were plated at varying densities in growth medium in 96 well plates. Cells were treated as indicated in the figures and viability measured using sulforhodamine B (SRB) or the number of cells counted using Coulter counter.

For a further data set, the system named is MCF-7-AR tumors. Put plainly: Affymetrix microarray of MCF-7-AR tumors. Type of data set: in vivo, mice. As to conditions: Table 9. As for the experimental part:
Microarray Analysis was performed on RNA from MDA-MB-231-AR and MCF-7-AR tumors in order to identify and compare changes in gene expression in ER-negative (MDA-MB-231-AR; triple negative) an ER-positive (MCF-7-AR; triple positive) breast cancer tumors treated with a compound of Formula VIII (30 mg/kg/day p.o. for 4 weeks). Affymetrix analysis of the xenografts was done on pooled samples of the xenografts. The analysis included ˜70,000 sequences with ˜30,000 genes and variations thereof represented, as well as microRNA's. RNA was isolated and expression of genes was evaluated using microarray (Affymetrix Human Gene ST 2.0 array). Expression of genes in compound of Formula VIII-treated samples was compared with the expression in vehicle-treated samples.

A further data set concerns the target T1, MR (Rattus norvegicus, UniProt P22199).
T1 construct: expressed in transfected cells
T1 sequence (P22199 1-981): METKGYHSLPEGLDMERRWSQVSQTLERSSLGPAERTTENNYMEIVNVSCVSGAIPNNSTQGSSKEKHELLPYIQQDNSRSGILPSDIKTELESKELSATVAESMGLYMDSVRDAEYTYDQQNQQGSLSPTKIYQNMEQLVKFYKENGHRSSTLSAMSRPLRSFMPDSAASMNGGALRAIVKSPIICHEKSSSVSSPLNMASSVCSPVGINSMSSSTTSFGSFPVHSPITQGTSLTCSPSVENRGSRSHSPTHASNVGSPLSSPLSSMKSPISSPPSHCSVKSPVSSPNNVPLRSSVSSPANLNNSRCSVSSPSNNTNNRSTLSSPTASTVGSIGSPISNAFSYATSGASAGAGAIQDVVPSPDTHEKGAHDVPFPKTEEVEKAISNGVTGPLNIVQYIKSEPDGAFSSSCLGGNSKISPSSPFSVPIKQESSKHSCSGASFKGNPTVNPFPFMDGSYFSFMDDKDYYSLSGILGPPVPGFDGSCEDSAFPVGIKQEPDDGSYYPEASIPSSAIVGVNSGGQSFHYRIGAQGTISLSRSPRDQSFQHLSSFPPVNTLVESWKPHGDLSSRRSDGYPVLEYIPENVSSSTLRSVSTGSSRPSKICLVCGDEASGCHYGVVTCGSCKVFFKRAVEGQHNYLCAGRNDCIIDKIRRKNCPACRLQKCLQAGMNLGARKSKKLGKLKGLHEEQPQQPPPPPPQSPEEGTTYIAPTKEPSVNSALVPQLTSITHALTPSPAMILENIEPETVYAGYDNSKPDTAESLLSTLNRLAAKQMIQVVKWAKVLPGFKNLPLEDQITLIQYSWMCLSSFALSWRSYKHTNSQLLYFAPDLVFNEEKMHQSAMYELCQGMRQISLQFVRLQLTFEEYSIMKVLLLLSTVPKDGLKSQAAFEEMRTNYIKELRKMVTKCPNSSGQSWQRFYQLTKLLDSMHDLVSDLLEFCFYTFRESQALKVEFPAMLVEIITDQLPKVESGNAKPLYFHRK
Put plainly: MR transactivation in HEK-293 cells. Type of data set: cell-based. As to the method: Rat GR, MR, PR, ER-α and ER-β were individually cloned into a pCR3.1 vector backbone. Sequencing was performed to verify the absence of any mutations. HEK-293 cells were plated at 90,000 cells per well of a 24 well plate in Dulbecco's Minimal Essential Media supplemented with 5% charcoal-stripped FBS. […] Luciferase assays were performed 48 h after transfection. Transcriptional activation values are represented as firefly luciferase normalized to renilla luciferase.

Each structure is given as a SMILES string.

As for `C[C@](O)(COc1ccc(C#N)cc1)C(=O)Nc1ccc(C#N)c(C(F)(F)F)c1` [Formula IX, (S)—N-(4-Cyano-3-(trifluoromethyl)phenyl)-3-(4-cyanophenoxy)-2-hydroxy-2-methylpropanamide], in data set [1], the tolerability result is on record as “generally well-tolerated”. Besides, in data set [2], the “proliferation / cell viability” value was “inhibited proliferation”.

Turning to `C[C@](O)(COc1ccc(C#N)cc1)C(=O)Nc1ccc(C#N)c(Cl)c1` [Formula VIII, (S)—N-(3-chloro-4-cyanophenyl)-3-(4-cyanophenoxy)-2-hydroxy-2-methylpropanamide], in the data set on MCF-7-AR tumors, the AHR expression result is listed as “Increased”, the CDT1 expression result is reported as “Decreased”, the Catalase expression entry was “Increased” and the EHMT1 expression result is on record as “Increased”. In the data set with MCF-7-AR tumors, the ER-α expression entry was “Decreased”, the ERCC2 expression entry is recorded as “Decreased”, the FACGD2 expression entry is listed as “Decreased” and the IRS1 expression entry is “Decreased”. Moreover, in the data set with MCF-7-AR tumors, the KLK3 expression result is on record as “Increased”, the MTR expression entry is “Decreased”, the NPAS2 expression entry is “Increased” and the PON2 expression entry is on record as “Increased”. Moreover, in the data set with MCF-7-AR tumors, the PR expression result is reported as “Decreased”, the TIMP3 expression entry is recorded as “Increased” and the XRCC1 expression entry is recorded as “Decreased”. Further, on MR (all tested concentrations), the “MR-mediated transactivation, agonist mode” value is listed as “did not induce”. Moreover, on MR (co-incubation), the “aldosterone-induced MR-mediated transactivation, antagonist mode” value is given as “failed to alter”.
